Source: BindingDB's records for doi:10.1021/jm060166w (University of Tours, 2006)

Target: 5-hydroxytryptamine receptor 1A (Sus scrofa)
Experiment: Displacement of [3H]8-OH-DPAT from 5HT1A receptor in porcine cortical membrane

Ki: 3.6 µM
SMILES: Fc1ccc(N2CCN(Cc3cn4ccccc4n3)CC2)cc1 [2-[4-(4-fluorophenyl)piperazin-1-ylmethyl]imidazo[1,2-a]pyridine]
